Experimental data as given in PubChem BioAssay AID1963845 (Molecular Pharmacology Branch, DTP, NCI, 2024).
pIC50: −log10 of the molar value.

Test system: 429239-143-T-J1-PDC complex spheroid viability
Assay: Anticancer human tumor 429239-143-T-J1-PDC patient-derived small cell lung carcinoma cell line growth inhibition [POLQ]
Conditions: for pIC50: curve of first compound; for viability, T/C: stronger effect = lower value
Method in brief: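 Three-cell-type spheroids modelling solid tumor plus stroma served as the readout system; POL inhibitors were tested individually and in combination, concentration ranges set by clinical Cmax where known.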

[1] = second compound 0.0316 µM, first compound 0.0316 µM
[2] = second compound 0.0316 µM, first compound 0.1 µM
[3] = second compound 0.0316 µM, first compound 0.316 µM
[4] = second compound 0.0316 µM, first compound 1 µM
[5] = second compound 0.0316 µM, first compound 3.16 µM
[6] = second compound 0.0316 µM, first compound 10 µM
[7] = second compound 0.1 µM, first compound 0.0316 µM
[8] = second compound 0.1 µM, first compound 0.1 µM
[9] = second compound 0.1 µM, first compound 0.316 µM
[10] = second compound 0.1 µM, first compound 1 µM
[11] = second compound 0.1 µM, first compound 3.16 µM
[12] = second compound 0.1 µM, first compound 10 µM
[13] = second compound 0.316 µM, first compound 0.0316 µM
[14] = second compound 0.316 µM, first compound 0.1 µM
[15] = second compound 0.316 µM, first compound 0.316 µM
[16] = second compound 0.316 µM, first compound 1 µM
[17] = second compound 0.316 µM, first compound 3.16 µM
[18] = second compound 0.316 µM, first compound 10 µM
[19] = second compound 1 µM, first compound 0.0316 µM
[20] = second compound 1 µM, first compound 0.1 µM
[21] = second compound 1 µM, first compound 0.316 µM
[22] = second compound 1 µM, first compound 1 µM
[23] = second compound 1 µM, first compound 3.16 µM
[24] = second compound 1 µM, first compound 10 µM
[25] = second compound 3.16 µM, first compound 0.0316 µM
[26] = second compound 3.16 µM, first compound 0.1 µM
[27] = second compound 3.16 µM, first compound 0.316 µM
[28] = second compound 3.16 µM, first compound 1 µM
[29] = second compound 3.16 µM, first compound 3.16 µM
[30] = second compound 3.16 µM, first compound 10 µM
[31] = second compound 10 µM, first compound 0.0316 µM
[32] = second compound 10 µM, first compound 0.1 µM
[33] = second compound 10 µM, first compound 0.316 µM
[34] = second compound 10 µM, first compound 1 µM
[35] = second compound 10 µM, first compound 3.16 µM
[36] = second compound 10 µM, first compound 10 µM
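Note: luminescence signal used as surrogate measure of viable cells; spheroids exposed to compounds for seven days before readout.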
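Throughout, for viability, T/C: 100% = DMSO vehicle control viability as luminescence relative to vehicle.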

CCc1cc2c(N3CCc4c(cc(Cn5ccnc5)cc4-c4cn(C)nc4C(F)(F)F)C3=O)cc(C)nc2c(OC)n1 + Cc1cccc(N(C)C(=O)C2C(O)CCN2c2nc(C)cc(C(F)(F)F)c2C#N)c1
pIC50 (second compound 0.0316 µM): < 5.00 | pIC50 (second compound 0.1 µM): < 5.00 | pIC50 (second compound 0.316 µM): 5.10 | pIC50 (second compound 1 µM): 5.08 | pIC50 (second compound 3.16 µM): < 5.00 | pIC50 (second compound 10 µM): 5.33 | viability, T/C [1]: 110% | viability, T/C [2]: 97.7% | viability, T/C [3]: 95% | viability, T/C [4]: 85.6% | viability, T/C [5]: 72.7% | viability, T/C [6]: 48.5% | viability, T/C [7]: 104% | viability, T/C [8]: 104% | viability, T/C [9]: 87.6% | viability, T/C [10]: 79% | viability, T/C [11]: 74.5% | viability, T/C [12]: 49.8% | viability, T/C [13]: 104% | viability, T/C [14]: 99.6% | viability, T/C [15]: 92.3% | viability, T/C [16]: 78.2% | viability, T/C [17]: 78.8% | viability, T/C [18]: 42.5% | viability, T/C [19]: 108% | viability, T/C [20]: 96.1% | viability, T/C [21]: 91.8% | viability, T/C [22]: 85% | viability, T/C [23]: 74.3% | viability, T/C [24]: 44.1% | viability, T/C [25]: 105% | viability, T/C [26]: 101% | viability, T/C [27]: 91.6% | viability, T/C [28]: 90.6% | viability, T/C [29]: 77.5% | viability, T/C [30]: 54.6% | viability, T/C [31]: 108% | viability, T/C [32]: 98.9% | viability, T/C [33]: 85.3% | viability, T/C [34]: 82.5% | viability, T/C [35]: 63.3% | viability, T/C [36]: 28.6%

CC(C)n1c(=O)n(C)c2cnc3cc(F)c(-c4ccc(OCCCN5CCCCC5)nc4)cc3c21 + Cc1cccc(N(C)C(=O)C2C(O)CCN2c2nc(C)cc(C(F)(F)F)c2C#N)c1
pIC50 (second compound 0.0316 µM): < 5.00 | pIC50 (second compound 0.1 µM): < 5.00 | pIC50 (second compound 0.316 µM): < 5.00 | pIC50 (second compound 1 µM): < 5.00 | pIC50 (second compound 3.16 µM): < 5.00 | pIC50 (second compound 10 µM): < 5.00 | viability, T/C [1]: 104% | viability, T/C [2]: 83% | viability, T/C [3]: 92.2% | viability, T/C [4]: 78.4% | viability, T/C [5]: 78.8% | viability, T/C [6]: 72.5% | viability, T/C [7]: 90.5% | viability, T/C [8]: 90.3% | viability, T/C [9]: 91.7% | viability, T/C [10]: 86.5% | viability, T/C [11]: 77.7% | viability, T/C [12]: 75.3% | viability, T/C [13]: 85% | viability, T/C [14]: 93.9% | viability, T/C [15]: 72.3% | viability, T/C [16]: 92.6% | viability, T/C [17]: 81.8% | viability, T/C [18]: 69.7% | viability, T/C [19]: 81.8% | viability, T/C [20]: 95.7% | viability, T/C [21]: 94.2% | viability, T/C [22]: 73.4% | viability, T/C [23]: 75.6% | viability, T/C [24]: 62.6% | viability, T/C [25]: 89.2% | viability, T/C [26]: 108% | viability, T/C [27]: 88.8% | viability, T/C [28]: 87.8% | viability, T/C [29]: 77.6% | viability, T/C [30]: 64.7% | viability, T/C [31]: 83.3% | viability, T/C [32]: 88.9% | viability, T/C [33]: 83.3% | viability, T/C [34]: 89.1% | viability, T/C [35]: 83.4% | viability, T/C [36]: 53.6%
